The nature of experiment [1]: antioxidant (antiradical) activity using DPPH radical. The protocol:
The antioxidant (AO) activity of DAG-DHLA was determined using DPPH. radical following the published methods (Brand-Williams, W. et al. (1995). Lebensm. Wiss. U.-Technol. 28:25-30).
Antioxidant solution in toluene (0.1 mL) was added to 3.9 mL of a 6×10^−5 mol/L toluene DPPH. solution. Absorbance was determined at 515 nm at 0 min, and every 30 min until the reaction reached a plateau. For each DAG-DHLA concentration tested, the reaction kinetics was plotted. From this graph, the percentage of DPPH. remaining at the steady state was recorded and the values transferred onto another graph showing the percentage of residual DPPH. at the steady state as a function of the molar ratio of antioxidant to DPPH..

Experiment [2] in a line: acute food intake experiment in rats. The class given is in vivo. The method, then:
An acute experiment with rats has been conducted recently after complying with Swedish Ethical regulations. Seven groups of rats (n=4-5) were given an acute test dose (100-200 mg/kg) of the control vehicle (rapeseed oil) and test conjugates. Part of the results is shown here in FIG. 4.

With `CCCCCCCC/C=C\CCCCCCCC(=O)OCC(COC(=O)CCCCCCC/C=C\CCCCCCCC)OC(=O)CCCCC(S)CCS` (stereo not drawn) [compound 2, 1,3-Dioleoyl-2-dihydrolipoate-sn-glycerol], the “EC50 (Efficient concentration), amount of antioxidant necessary to decrease the initial DPPH. concentration by 50%” value in experiment [1] (6×10^−5 mol/L DPPH. in toluene, steady state, 515 nm) is given as 0.21 (mol/L) AO/(mol/L) DPPH. Further, the “Number of reduced DPPH. (1/EC100), DPPH. moles reduced by one mole of antioxidant” value in experiment [1] (DPPH. in toluene) amounted to 2.34. Further, the Kinetic behaviour entry in experiment [1] (reaction with DPPH. in toluene, absorbance at 515 nm) was “Rapid”. Besides, the acute food intake result in experiment [2] (acute test dose 200 mg/kg, after 4 hours, compared to vehicle (rapeseed oil), FIG. 4) was “seems to block food intake”.

For `CCCCCCCC/C=C\CCCCCCCC(=O)OCC(COC(=O)CCCCCCC/C=C\CCCCCCCC)OC(=O)CCCCC1CCSS1` (stereo not drawn) [compound 1, 1,3-Dioleoyl-2-lipoyl-sn-glycerol], the “antioxidant activity (in words)” value in experiment [1] (DPPH. in toluene, in parallel, compared with DAG-DHLA) was “negligible antioxidant activity”. Moreover, the acute food intake result in experiment [2] (acute test dose (100-200 mg/kg), compared with the DAG-DHLA result) is listed as “Rather similar result”.

Values taken from patent US8629175B2, “Functional food additives” (priority 2009, dated 2014).
